Structures can show the parent of a compound that is named as a salt.
Key:
Assay type in all cases: biochemical
c-Met = biological target: T1, c-Met (Homo sapiens, UniProt P08581); assay: RTK ELISA, recombinant kinase domain, c-Met; details: GST-cMet (aa956-1390) expressed in baculovirus infected insect cells
T1 construct: GST-cMet (aa956-1390); GST (N); purchased ProQuinase, Freiburg; host or cells: baculovirus infected insect cells Sf9
Description: (§1) Follwing IC50 values were determined in the RTK ELISA using recombinant kinase domains of receptor tyrosine kinases which were expressed in baculovirus infected insect cells.
(§2) Receptor Tyrosine Kinase Assay
(§3) The following in vitro assays are used to determine the ability of different compounds to inhibit the transfer of phosphate groups onto tyrosine residues of downstream substrates. The level of phosphorylation is measured by a monoclonal antibody which is specific for phosphorylated tyrosine residues in an enzyme-linked immunosorbent assay (ELISA).
(§4) The following recombinant kinases were expressed in baculovirus infected insect cells Sf9 and purchased from ProQuinase, Freiburg:
(§5) If not otherwise indicated all steps are performed at room temperature.
(§6) 1.) Coat wells of ELISA plate with […] Poly-Glu-Tyr 4:1 in 100 μl/well PBS buffer (137 mM NaCl, 3 mM KCl, 1.5 mM KH2PO4, 8.2 mM Na2HPO4) overnight at 4° C.
(§7) 2.) Wash 2 times for 5 min each with PBS+0.05% Tween20 […]
(§8) a) Add 5-30 ng/well kinase in 50 μl/well kinase buffer (100 mM HEPES pH 7.4, 100 mM NaCl, 0.1 mM Na3VO4) b) Add 25 μl/well compound (50 and 5 μM) in 5% DMSO c) Add 25 μl/well 100 μM ATP in 40 mM MnCl2
(§9) 4.) Wash 3 times for 5 min each with PBS+0.05% Tween20
(§10) 5.) Add anti phosphotyrosin antibody/HRP 1:10.000 in 100 μl/well PBS+0.05% Tween+0.1 BSA, incubate for 1 h
(§11) 6.) Wash 3 times for 5 min each with PBS+0.05% Tween20
(§12) 7.) Chemoluminescence reaction: a.) Premix 25 μl/well BM CLS Solution 1 with 0.25 μl/well BM CLS Solution 2 b.) Preincubate for 15 min […]
(§13) d.) Add 50 μl/well substrate solution to microtiter wells e.) Incubate for at least 1 min
(§14) 8.) Detect chemoluminescence signals in Tecan Genios reader

KDR = biological target: T2, KDR (Homo sapiens, UniProt P35968); assay: RTK ELISA, recombinant kinase domain, KDR; details: GST-KDR (aa807-1356) expressed in baculovirus infected insect cells
T2 construct: GST-KDR (aa807-1356); GST (N); purchased ProQuinase, Freiburg; host or cells: baculovirus infected insect cells Sf9
Description: as §1, §2, §3, §4, §5, §6, §7, §8, §9, §10, §11, §12, §13, §14

Tie-2 = biological target: T3, Tie-2 (Homo sapiens, UniProt Q02763); assay: RTK ELISA, recombinant kinase domain, Tie-2; details: GST-Tie2/Tek (aa 771-1124) expressed in baculovirus infected insect cells
T3 construct: GST-Tie2/Tek (aa 771-1124); GST (N); purchased ProQuinase, Freiburg; host or cells: baculovirus infected insect cells Sf9
Description: as §1, §2, §3, §4, §5, §6, §7, §8, §9, §10, §11, §12, §13, §14

T1 sequence (P08581 956-1390): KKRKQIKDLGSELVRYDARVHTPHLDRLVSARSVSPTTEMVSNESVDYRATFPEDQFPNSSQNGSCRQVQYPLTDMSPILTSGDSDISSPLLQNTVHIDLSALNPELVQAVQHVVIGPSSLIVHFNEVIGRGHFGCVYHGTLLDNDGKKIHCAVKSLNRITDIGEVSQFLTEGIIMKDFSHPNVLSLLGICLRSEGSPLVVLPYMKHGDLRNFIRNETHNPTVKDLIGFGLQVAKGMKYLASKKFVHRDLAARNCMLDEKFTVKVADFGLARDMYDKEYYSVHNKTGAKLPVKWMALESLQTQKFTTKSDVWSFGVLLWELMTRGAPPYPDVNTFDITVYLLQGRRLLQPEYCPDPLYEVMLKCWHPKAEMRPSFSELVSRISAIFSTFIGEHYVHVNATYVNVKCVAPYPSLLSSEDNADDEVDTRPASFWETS
T2 sequence (P35968 807-1356): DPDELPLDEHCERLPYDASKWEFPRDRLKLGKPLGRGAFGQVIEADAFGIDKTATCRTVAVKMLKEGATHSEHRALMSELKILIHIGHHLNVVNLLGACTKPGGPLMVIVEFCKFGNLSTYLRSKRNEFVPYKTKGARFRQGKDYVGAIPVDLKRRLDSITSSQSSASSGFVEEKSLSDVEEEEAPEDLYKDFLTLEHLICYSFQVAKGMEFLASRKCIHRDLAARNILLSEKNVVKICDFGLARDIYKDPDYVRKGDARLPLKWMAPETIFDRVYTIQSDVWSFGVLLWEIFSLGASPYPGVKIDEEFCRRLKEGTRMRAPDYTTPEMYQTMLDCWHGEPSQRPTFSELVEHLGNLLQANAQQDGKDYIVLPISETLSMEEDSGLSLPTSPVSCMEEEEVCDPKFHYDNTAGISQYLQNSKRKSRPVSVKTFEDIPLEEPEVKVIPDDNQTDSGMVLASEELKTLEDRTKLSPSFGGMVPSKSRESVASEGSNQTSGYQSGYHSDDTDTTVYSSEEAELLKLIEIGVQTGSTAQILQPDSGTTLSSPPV
T3 sequence (Q02763 771-1124): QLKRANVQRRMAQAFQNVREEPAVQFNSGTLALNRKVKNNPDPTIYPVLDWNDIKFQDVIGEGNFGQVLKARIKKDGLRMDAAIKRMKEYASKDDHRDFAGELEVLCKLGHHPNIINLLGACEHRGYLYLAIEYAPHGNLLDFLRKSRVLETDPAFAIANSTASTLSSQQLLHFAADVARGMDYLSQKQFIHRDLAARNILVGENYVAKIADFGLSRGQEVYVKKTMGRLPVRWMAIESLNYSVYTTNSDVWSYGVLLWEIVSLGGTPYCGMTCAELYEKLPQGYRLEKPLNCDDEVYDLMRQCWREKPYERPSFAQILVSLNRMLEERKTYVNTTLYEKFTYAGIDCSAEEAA

SMILES	IC50 (c-Met) [µM]	IC50 (KDR) [µM]	IC50 (Tie-2) [µM]
CCN(CC)c1ccc(-c2coc(N)n2)cc1 [Number 24, 4-(4-diethylamino-phenyl)-oxazol-2-ylamine Hydrobromide]	> 50	1.5	5
c1ccc(Nc2nc(-c3ccc(N4CCCC4)cc3)cs2)nc1 [Number 12, Hydrobromide]			> 50
Cc1nc(-c2ccc(N3CCCC3)cc2)cs1 [Number 21, 2-methyl-4-(4-pyrrolidin-1-yl-phenyl)-thiazole Hydrobromide]	> 50		2.5
CCN(CC)c1ccc(-c2csc(N(C)c3ccccc3)n2)cc1 [Number 27, [4-(4-diethylamino-phenyl)-thiazol-2-yl]-methyl-phenyl-amine Hydrobromide]	> 50	> 50	> 50
CNc1nc(-c2cnn(-c3ccccc3)c2C)cs1 [Number 34, methyl-[4-(5-methyl-1-phenyl-1H-pyrazol-4-yl)-thiazol-2-yl]-amine Hydrochloride]	> 50	1.5	1.5
CCN(CC)c1ccc(-c2csc(Nc3ccccc3)n2)cc1 [Number 26, [4-(4-Diethylamino-phenyl)-thiazol-2-yl]-phenyl-amine Hydrobromide]	> 25	2	2
c1cc(Nc2nc(-c3ccc(N4CCCC4)cc3)cs2)ccn1 [Number 15, pyridin-4-yl-[4-(4-pyrrolidin-1-yl-phenyl)-thiazol-2-yl]-amine Hydrobromide]	> 10	5	1
Nc1nc(-c2ccc(N3CCCC3)cc2)co1 [Number 6, 4-(4-pyrrolidin-1-yl-phenyl)-oxazol-2-ylamine Hydrobromide]	> 50	> 25	5
O=C(O)c1ccc(Nc2nc(-c3ccc(N4CCCC4)cc3)cs2)cc1 [Number 20, 4-[4-(4-pyrrolidin-1-yl-phenyl)-thiazol-2-ylamino]-benzoic Acid Hydrobromide]	> 10	1	< 1
c1cncc(-c2nc(-c3ccc(N4CCCC4)cc3)co2)c1 [Number 14, 3-[4-(4-pyrrolidin-1-yl-phenyl)-oxazol-2-yl]-pyridine Hydrobromide]	> 25	> 50	5
Nc1nc(-c2ccc(N3CCCC3)cc2)cs1 [Number 5, 4-(4-pyrrolidin-1-yl-phenyl)-thiazol-2-ylamine Hydrobromide]	5	5	2.5
c1cncc(Nc2nccs2)c1 [Number 4, pyridin-3-yl-thiazol-2-yl-amine Hydrochloride]	> 25	5	> 50
CCN(CC)c1ccc(-c2csc(C)n2)cc1 [Number 33, diethyl-[4-(2-methyl-thiazol-4-yl)-phenyl]-amine Hydrobromide]	> 50	5	5
c1ccc(-c2ccc(-c3csc(Nc4cccnc4)n3)s2)nc1 [Number 37, pyridin-3-yl-[(4-(5-pyridin-2-yl-thiophen-2-yl)-thiazol-2-yl]-amine Hydrobromide]	> 50	> 50	2.5
c1ccc(CCNc2nc(-c3ccc(N4CCCC4)cc3)cs2)cc1 [Number 11, phenylethyl-[4-(4-pyrrolidin-1-yl-phenyl)-thiazol-2-yl]-amine Hydrobromide]			> 50
c1ccc(Nc2nccs2)cc1 [Number 3, phenyl-thiazol-2-yl-amine Hydrochloride]	> 50	3.5	
c1cncc(Nc2nc(-c3ccc(N4CCCC4)cc3)cs2)c1 [Number 13, Hydrobromide]	> 10	2	1

SMILES	IC50 (c-Met) [µM]	IC50 (KDR) [µM]	IC50 (Tie-2) [µM]
CCN(CC)c1ccc(-c2csc(Nc3cccnc3)n2)cc1 [Number 30]	> 50	3	0.8
CN(c1ccccc1)c1nc(-c2ccc(N3CCCC3)cc2)cs1 [Number 9, methyl-phenyl-[4-(4-pyrrolidin-1-yl-phenyl)-thiazol-2-yl]-amine Hydrobromide]	> 25	> 25	2.5
O=[N+]([O-])c1ccc(Nc2nc(-c3ccc(N4CCCC4)cc3)cs2)cc1 [Number 17, Dihydrobromide]	> 25	> 10	2
CCN(CC)c1ccc(-c2csc(NCc3ccccc3)n2)cc1 [Number 28, benzyl-[4-(4-diethylamino-phenyl)-thiazol-2-yl]-amine Hydrobromide]	> 50	> 50	> 50
c1cc(-c2nc(-c3ccc(N4CCCC4)cc3)co2)ccn1 [Number 16, 4-[4-(4-pyrzolidin-1-yl-phenyl)-oxazol-2-yl]-pyridine Hydrobromide]	> 50	> 50	> 50
c1cc(Nc2nc(-c3ccc(N4CCCC4)cc3)cs2)ccc1Nc1nc(-c2ccc(N3CCCC3)cc2)cs1 [Number 18, N,N′-bis-[4-(4-pyrrolidin-1-yl-phenyl)-thiazol-2-yl]-benzene-1,4-diamine Dihydrobromide]	> 50	> 10	> 10
CCN(CC)c1ccc(-c2csc(N)n2)cc1 [Number 23, 4-(4-diethylamino-phenyl)-thiazol-2-ylamine Hydrobromide]	> 50	2	5
CCN(CC)c1ccc(-c2csc(NC)n2)cc1 [Number 25, [4-(4-diethylamino-phenyl)-thiazol-2-yl]-methyl-amine Hydrobromide]	> 50	5	1
c1ccc(CCNc2nc(-c3ccccn3)cs2)cc1 [Number 35, phenylethyl-(4-pyridin-2-yl-thiazol-2-yl)-amine Hydrobromide]	2	1	1
CNc1nc(-c2ccc(-c3ccccn3)s2)cs1 [Number 36, methyl-[4-(5-pyridin-2-yl-thiophen-2-yl)-thiazol-2-yl]-amine Hydrobromide]	> 50	> 10	> 20
CCN(CC)c1ccc(-c2csc(Nc3ccccn3)n2)cc1 [Number 29, [4-(4-diethylamino-phenyl)-thiazol-2-yl)-pyridin-2-yl-amine Hydrobromide]	> 50	> 50	> 50
CNc1nc(-c2ccc(N3CCCC3)cc2)cs1 [Number 7, methyl-[4-(4-pyrrolidin-1-yl-phenyl)-thiazol-2-yl]-amine Hydrobromide]	> 50	7	3
c1ccc(CNc2nc(-c3ccc(N4CCCC4)cc3)cs2)cc1 [Number 10, benzyl-[4-(4-pyrrolidin-1-yl-phenyl)-thiazol-2-yl]-amine Hydrobromide]	> 50	> 50	5
c1ccc(Nc2nc(-c3ccc(N4CCCC4)cc3)cs2)cc1 [Number 8, phenyl-[4-(4-pyrrolidin-1-yl-phenyl)-thiazol-2-yl]-amine Hydrobromide]	> 25	2.5	5
CNc1nccs1 [Number 2, methyl-thiazol-2-yl-amine Hydrochloride]	> 50	5	> 50
CCN(CC)c1ccc(-c2csc(Nc3cccc(C(F)(F)F)c3)n2)cc1 [Number 32, [4-(4-diethylamino-phenyl)-thiazol-2-yl-(3-trifluoromethyl-phenyl)-amine Hydrobromide]	> 50	5	3
FC(F)(F)c1cccc(Nc2nc(-c3ccc(N4CCCC4)cc3)cs2)c1 [Number 19, [4-(4-pyrrolidin-1-yl-phenyl)-thiazol-2-yl]-(3-trifluoromethyl-phenyl)-amine Hydrobromide]	> 50	2	2

— patent publication US20030158199A1, “Novel compounds for inhibition of Tie-2” (KYLIX, B.V., priority 2002, published 2003)
